This note sets out measurements from ChEMBL document CHEMBL1201862, “PubChem BioAssay data set” (2004).

SMILES strings stand for the structures.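 Cells were grown in 96-well plates and exposed to each compound for 48 hours at five concentrations; endpoints were interpolated linearly between bracketing concentrations, or set to the highest concentration if not reached. Here, GI50 denotes the concentration required for 50% inhibition of growth.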 The source made the active and inactive calls. No stated cut-off is given here; in the data, active = GI50 up to about 1.1 µM and inactive = higher.

Among the test systems are SF-539; M14; K562; CCRF-CEM; TK-10; SK-MEL-5; NCI-H460; Hs-578T; KM12; OVCAR-3; NCI-H23; DU-145; 786-0; HCT-15; HCC 2998; HOP-62; HOP-92; CAKI-1; A498; HT-29.
Holding throughout (assay): NCI-60 cell line screen, 48 h

Take `CCOC(=O)CCC(NC(=O)Cc1ccc(Oc2nc3ccccc3nc2-c2cccs2)cc1)C(=O)OCC` (stereo not given): the GI50 in the assay on SF-539 was 5.14 µM (inactive); in the assay on M14, > 100 µM (inactive); in the assay on K562, > 100 µM (inactive); with CCRF-CEM it was > 100 µM (inactive); in the assay with TK-10 it was 19.2 µM (inactive); in the assay on SK-MEL-5, > 100 µM (inactive). Also, the GI50 in the assay with NCI-H460 is 34.4 µM (inactive); in the assay with Hs-578T it was 13.6 µM (inactive); with KM12, > 100 µM (inactive); in the assay with OVCAR-3 it was 4.07 µM (inactive); in the assay on NCI-H23, 61.9 µM (inactive); in the assay with DU-145, 7.45 µM (inactive). For the same molecule, the GI50 was 2.49 µM (inactive) in the assay on 786-0; more than 100 µM in the assay with HCT-15; 32.2 µM (inactive) in the assay with HCC 2998; 1.73 µM (inactive) in the assay with HOP-62; 14 µM (inactive) in the assay with HOP-92; 39.3 µM (inactive) in the assay with CAKI-1. Further, the results for the GI50 in the assay on A498 and in the assay with HT-29 were 19.4 µM (inactive) and > 100 µM (inactive), respectively.
Turning to `NC(=O)C1CCN(Cc2c(Cl)c(Cl)c(CN3CCC(C(N)=O)CC3)c(Cl)c2Cl)CC1`, the GI50 in the assay with SF-539 is 28.4 µM (inactive); in the assay with M14, 86.3 µM (inactive); with K562, > 100 µM (inactive); in the assay with CCRF-CEM it was > 100 µM (inactive); in the assay on TK-10 it was > 100 µM (inactive); in the assay with SK-MEL-5, > 100 µM (inactive). The GI50 with NCI-H460 was > 100 µM (inactive); in the assay with Hs-578T it was 49.9 µM (inactive); with KM12, > 100 µM (inactive); in the assay with OVCAR-3 it was > 100 µM (inactive); in the assay on NCI-H23, > 100 µM (inactive); with DU-145 it was > 100 µM (inactive). The GI50 in the assay with 786-0 was 77.1 µM (inactive); in the assay with HCT-15, more than 100 µM; in the assay on HCC 2998, > 100 µM (inactive); in the assay with HOP-62 it was 11.6 µM (inactive); in the assay with HOP-92, 67.1 µM (inactive); in the assay on CAKI-1, > 100 µM (inactive). The GI50 with A498 is 28.3 µM (inactive); with HT-29, > 100 µM (inactive).
With `CCC1(O)C(=O)OCc2c1cc1n(c2=O)Cc2cc3ccccc3nc2-1` (stereo not given), the GI50 was 0.0157 µM (active) in the assay with SF-539; < 0.01 µM (active) with M14; 0.0455 µM (active) in the assay on K562; < 0.0122 µM (active) in the assay with CCRF-CEM; 6.73 µM (inactive) in the assay with TK-10; 0.0473 µM (active) in the assay with SK-MEL-5. Besides, the GI50 in the assay on NCI-H460 was < 0.0403 µM (active); with Hs-578T it was 7.73 µM (inactive); in the assay with KM12, 0.221 µM (active); in the assay with OVCAR-3 it was 0.308 µM (active); in the assay with NCI-H23, < 0.0188 µM (active); with DU-145, 0.018 µM (active). Moreover, the GI50 was 0.0279 µM (active) in the assay with 786-0; 0.239 µM in the assay on HCT-15; 0.895 µM (active) in the assay with HCC 2998; < 0.0149 µM (active) in the assay with HOP-62; 0.12 µM (active) in the assay on HOP-92; < 0.01 µM (active) in the assay on CAKI-1. Besides, the GI50 was 0.94 µM (active) with A498 and 0.0653 µM (active) in the assay with HT-29.
Turning to `Oc1c(-c2ccccc2)sc2ccccc12`, the GI50 in the assay with SF-539 was 44.5 µM (inactive); in the assay on M14 it was 20.2 µM (inactive); in the assay with K562 it was 13.7 µM (inactive); with CCRF-CEM, 29.8 µM (inactive); in the assay with TK-10, 72.6 µM (inactive); in the assay on SK-MEL-5 it was 16.7 µM (inactive). In addition, the GI50 is 19.1 µM (inactive) in the assay with NCI-H460; 43.9 µM (inactive) in the assay with Hs-578T; 25.8 µM (inactive) in the assay on KM12; 10.2 µM (inactive) in the assay with OVCAR-3; 20.4 µM (inactive) in the assay on NCI-H23; 18.8 µM (inactive) in the assay with DU-145. The GI50 with 786-0 was 22.4 µM (inactive); in the assay with HCT-15, 31.9 µM; in the assay with HCC 2998, 17.1 µM (inactive); with HOP-62, 16.7 µM (inactive); with HOP-92 it was 21.9 µM (inactive); in the assay on CAKI-1, 0.836 µM (active). The values for the GI50 in the assay with A498 and in the assay on HT-29 were 31.4 µM (inactive) and 31.3 µM (inactive), respectively.
